Data published in US10377991B2, “Method of producing airway epithelial cells” (KYOTO UNIVERSITY, priority 2015, dated 2019).

Test system: proximal airway epithelial progenitor cells induced from human iPS cells (201B7)
Assay: Induction of differentiation into ciliated airway epithelial cells in Step 6 three-dimensional culture, qRT-PCR of FOXJ1, DNAHS and SNTN
Format: cell-based
Details: 10 μM DAPT in medium for Step 6 from Day 42, read on Day 56; versus Step 6 medium without DAPT
Description: On Day 42 (i.e., upon completion of Step 5), the medium in the lower layer of Cell Culture Inserts (Corning) was exchanged with the medium for Step 6, and the medium of the lower layer was selectively exchanged with another medium every other day.
The medium for Step 6 was prepared by supplementing the Pneumacult-ALI Maintenance Medium (STEMCELL Technologies) with 10 μM Y-27632.
On Day 6 (i.e., upon completion of Step 1), Day 14 (i.e., upon completion of Step 3), Day 28 (i.e., upon completion of Step 4), Day 42 (i.e., upon completion of Step 5), and Day 56 (i.e., upon completion of Step 6), expression levels of FOXJ1, DNAHS, and SNTN as marker genes specific to ciliated airway epithelial cells were analyzed via quantitative RT-PCR. Day 56 (+DAPT) represents the results of culture conducted in the medium for Step 6 supplemented with 10 μM DAPT from Day 42 (i.e., upon completion of Step 5). The measured values indicate the ratio of the cell expression levels to the amount of β-actin (AB) corrected with the expression levels in the human fetal trachea (F-trachea, 29-weeks pregnant, BioChain Institute).

## C[C@H](NC(=O)Cc1cc(F)cc(F)c1)C(=O)N[C@H](C(=O)OC(C)(C)C)c1ccccc1 [DAPT, N-[2S-(3,5-difluorophenyl)acetyl]-L-alanyl-2-phenyl-1,1-dimethylethyl ester-glycine]
  differentiation into ciliated airway epithelial cells (expression of FOXJ1, DNAHS, SNTN by qRT-PCR): further accelerated
